Experimental data as given in article PMC4926073, “Absorption and Transport of Sea Cucumber Saponins from Apostichopus japonicus” (Marine Drugs, 2016).
Read-outs that look alike come from different tables or passages of the source.

How the values were obtained:
[1] = Freeze-thaw, short-term and long-term stability in perfusate (Krebs-Ringer buffer solution); details: for Short-Term Stability, Accuracy (%): ambient temperature 24 h; for Long-Term Stability, Accuracy (%): ambient temperature 5 d
[2] = system: Caco-2 cell monolayer; assay: Transepithelial transport across Caco-2 cell monolayer
[3] = Freeze-thaw, short-term and long-term stability in rat plasma; details: for Short-Term Stability, Accuracy (%): ambient temperature 24 h; for Long-Term Stability, Accuracy (%): ambient temperature 5 d
[4] = in vivo; details: male, Wistar, rat, iv, 20 mg/kg
[5] = In vivo pharmacokinetics in rats after oral administration; details: 20 mg/kg
[6] = system: Caco-2 cell monolayer; details: human
[7] = Single-pass intestinal perfusion in rats; details: for concentration-dependent changes in permeability: 1, 5, 25 μg/mL
Experimental: (§1) Data were expressed as the means ± SD of three determinations: Peff = −Q ln [Cout/Cin]/2πrl(2)
(§2) In which Cin is the inlet concentration and Cout is the outlet concentration of compound, which is corrected for volume change in the segment using phenol red concentration in the inlet and outlet tubing. Q is the flow rate (0.2 mL/min), r is the rat intestinal radius (0.18 cm), and l is the length of the segment [32].
(§3) The rats were anaesthetized with an intra-abdominal injection of 10% chloral hydrate at a dose of 5 mL/kg. The enterocoelia of the rat was dissected by a 3–4 cm midline length, a segment of intestine about 10 cm long was separated and washed with saline. Silicone tubing was inserted into both sides of the segment of intestine and a peristaltic pump was connected to the proximal side of the tube. A pledget with saline was added onto the surgical area to avoid loss of fluid. The segment was cleared with 37 °C saline firstly, then blank K-R buffer solution was infused at the inlet and blank perfusate was collected at the outlet. The segment was infused with perfusate containing phenol red and different concentrations of sea cucumber saponins (1, 5, and 25 μg/mL) at a flow rate of 2 mL/min. Then the rate was reduced to 0.2 mL/min for 30 min until steady-state. Samples were obtained from the outlet of the segment every 15 min and stored at −20 °C for analysis. Different concentrations of sea cucumber saponins were perfused to highlight the absorption mechanism of sea cucumber saponins, which were investigated by the concentration-dependent change of the permeability values. 400 μg/mL verapamil was added to the perfusion solution containing 5 μg/mL sea cucumber saponins and 20 μg/mL phenol red to investigate whether the intestinal absorption of sea cucumber saponins were affected by P-gp.

[8] = in vitro; details: human; for recovery: Caco-2, Recovery (AP + BL chambers + cell monolayer)
[9] = in vivo; details: rat
Experimental: as §1, §2, §3

[10] = rat, in vivo, 20 mg/kg
[11] = rat
[12] = rat; remark: listed apart in the source
Experimental: as §1, §2, §3

[13] = nominal conc. 100.00 ng/mL, frozen at −20 °C 24 h, thawed at ambient temperature
[14] = range over freeze-thaw, short-term, long-term and both compounds

SMILES: CO[C@@H]1[C@@H](O)[C@H](O[C@@H]2[C@@H](O)[C@H](O[C@H]3[C@H](O)[C@@H](O)[C@H](O[C@H]4[C@H](O[C@H]5CC[C@]6(C)C7=C[C@H](O)[C@]89C(=O)O[C@@](C)(CCCC(C)C)[C@@]8(O)CC[C@@]9(C)C7CCC6C5(C)C)OC[C@@H](OS(=O)(=O)O)[C@@H]4O)O[C@@H]3C)O[C@H](CO)[C@H]2O)O[C@H](CO)[C@H]1O (stereo partly shown) [Echinoside A]
- Short-Term Stability, Accuracy (%) ([1]; nominal conc. 100.00 ng/mL): 90.8%
- Long-Term Stability, Accuracy (%) ([1]; nominal conc. 100.00 ng/mL): 89.2%
- Freeze-Thaw Stability, Accuracy (%) [1, 13]: 91.6%
- Freeze-Thaw Stability, Accuracy (%) ([1]; nominal conc. 1000.00 ng/mL): 91.9%
- Short-Term Stability, Accuracy (%) ([1]; nominal conc. 1000.00 ng/mL): 91.3%
- Long-Term Stability, Accuracy (%) ([1]; nominal conc. 1000.00 ng/mL): 92.6%
- Freeze-Thaw Stability, Accuracy (%) ([1]; nominal conc. 5000.00 ng/mL): 93.5%
- Short-Term Stability, Accuracy (%) ([1]; nominal conc. 5000.00 ng/mL): 94.4%
- Long-Term Stability, Accuracy (%) ([1]; nominal conc. 5000.00 ng/mL): 91.1%
- stability in perfusate under three conditions [1, 14]: 88.2%–94.8
- AP Chamber (%) recovered ([2]; time 60 min): 82.14 ± 2.85%
- BL Chamber (%) recovered ([2]; time 60 min): 1.04 ± 0.12%
- Cell Fraction (%) recovered ([2]; time 60 min): 14.22 ± 1.14%
- AP Chamber (%) recovered ([2]; time 90 min): 81.63 ± 2.04%
- BL Chamber (%) recovered ([2]; time 90 min): 1.51 ± 0.11%
- Cell Fraction (%) recovered ([2]; time 90 min): 15.05 ± 1.29%
- AP Chamber (%) recovered ([2]; time 120 min): 80.25 ± 2.67%
- BL Chamber (%) recovered ([2]; time 120 min): 1.90 ± 0.20%
- Cell Fraction (%) recovered ([2]; time 120 min): 14.43 ± 1.24%
- AP Chamber (%) recovered ([2]; time 150 min): 79.38 ± 2.21%
- BL Chamber (%) recovered ([2]; time 150 min): 2.36 ± 0.21%
- Cell Fraction (%) recovered ([2]; time 150 min): 14.78 ± 0.92%
- transport mechanism across Caco-2 monolayer ([2]; with and without P-gp inhibitor verapamil 100 μM): transported by passive diffusion without the participation of P-gp
- Short-Term Stability, Accuracy (%) ([3]; nominal conc. 100.00 ng/mL): 95.4%
- Long-Term Stability, Accuracy (%) ([3]; nominal conc. 100.00 ng/mL): 97.2%
- Freeze-Thaw Stability, Accuracy (%) [3, 13]: 94.4%
- Freeze-Thaw Stability, Accuracy (%) ([3]; nominal conc. 1000.00 ng/mL): 96.7%
- Short-Term Stability, Accuracy (%) ([3]; nominal conc. 1000.00 ng/mL): 96.0%
- Long-Term Stability, Accuracy (%) ([3]; nominal conc. 1000.00 ng/mL): 102.1%
- Freeze-Thaw Stability, Accuracy (%) ([3]; nominal conc. 5000.00 ng/mL): 98.9%
- Short-Term Stability, Accuracy (%) ([3]; nominal conc. 5000.00 ng/mL): 102.4%
- Long-Term Stability, Accuracy (%) ([3]; nominal conc. 5000.00 ng/mL): 100.3%
- stability in plasma under three conditions [3, 14]: 93.4%–102.4
- AUC [4]: 16400 ± 450 ng·h/mL
- Cmax [4]: 4000 ± 440 ng/mL
- Tmax [4]: 4.8 min
- half-life [4]: 8.52 ± 0.32 h
- bioavailability ([5]; male, Wistar, rat, in vivo): 59%
- AUC ([5]; male, Wistar, rat, in vivo, po): 9270 ± 390 ng·h/mL
- Cmax ([5]; male, Wistar, rat, in vivo, po): 910 ± 20 ng/mL
- half-life ([5]; male, Wistar, rat, in vivo, po, T1/2, rat): 6.99 h
- Tmax ([5]; male, Wistar, rat, in vivo, po, Tmax): ≤ 3 h
- time at which detected in rat plasma after oral administration ([5]; oral): 1 h
- T1/2 ([5]; rat, oral): 6.9 ± 0.32 h
- max value of the concentration in the plasma ([5]; rat, oral): 910 ng/mL
- Papp AP-BL [6]: 4.04 ± 0.39 × 10^−6, cm·s^−1
- Papp BL-AP [6]: 5.33 ± 0.70 × 10^−6, cm·s^−1
- concentration-dependent changes in permeability ([7]; rat single-pass intestinal perfusion): not found
- change in permeability when verapamil was added to the perfusate ([7]; rat single-pass intestinal perfusion, verapamil 400 μg/mL): No significant increase
- Papp ([7]; rat, other: single-pass intestinal perfusion): 25 ×10⁻⁶ cm/s
- Papp A→B ([8]; Caco-2): 3.96 ± 0.55 ×10⁻⁶ cm/s
- Papp B→A ([8]; Caco-2): 5.38 ± 0.81 ×10⁻⁶ cm/s
- recovery ([8]; time 60 min): 97.4 ± 2.76%
- recovery ([8]; time 90 min): 98.2 ± 1.97%
- recovery ([8]; time 120 min): 96.6 ± 2.33%
- recovery ([8]; time 150 min): 96.5 ± 2.04%

SMILES: CC(C)NCC(O)COc1cccc2ccccc12 (stereo not shown) [propranolol, reference compound]
- Papp A→B at 150 min, 20 µM ([8]; Caco-2): 26.1 ± 1.2 ×10⁻⁶ cm/s

SMILES: C=C(C)CCCC1(C)OC(=O)C23CC=C4C(CCC5C4(C)CCC(OC4OCC(OC6OC(CO)C(O)C(OC7OC(CO)C(O)C(OC)C7O)C6O)C(O)C4OC4OC(C)C(OC6OCC(O)C(OC7OC(CO)C(O)C(OC)C7O)C6O)C(O)C4O)C5(C)C)C2(C)CC(=O)C13 (stereo not shown) [Holotoxin A1]
- AP Chamber (%) recovered ([2]; time 60 min): 97.66 ± 2.02%
- AP Chamber (%) recovered ([2]; time 90 min): 96.56 ± 1.89%
- AP Chamber (%) recovered ([2]; time 120 min): 95.46 ± 1.72%
- AP Chamber (%) recovered ([2]; time 150 min): 95.90 ± 2.27%
- BL Chamber (%) recovered ([2]; time 150 min): <0.2%
- Cell Fraction (%) recovered ([2]; time 150 min): <0.2%
- Papp [9]: 2.67 ×10⁻⁶ cm/s
- detection in the plasma after oral administration [10]: not detected
- stability in plasma under three conditions [11]: 93.4%–102.4
- AUC [4]: 6530 ± 150 ng·h/mL
- Cmax [4]: 2870 ± 170 ng/mL
- Tmax [4]: 4.8 min
- half-life [4]: 4.4 ± 0.06 h
- change in permeability when verapamil was added to the perfusate [12]: No significant increase
- Papp AP-BL [6]: <0.83 × 10^−6, cm·s^−1
- PappAB (Papp AP to BL) [6]: less than 0.83 × 10^−6 cm·s^−1
- concentration-dependent changes in permeability [7]: not found
- Papp A→B ([8]; Caco-2): < 0.83 ×10⁻⁶ cm/s
- Papp B→A ([8]; Caco-2): < 0.83 ×10⁻⁶ cm/s
